Values of other authors, collected in patent US20050101629A1, “Compositions of a chromene cyclooxygenase-2 selective inhibitor and a cholinergic agent for the treatment of reduced blood flow or trauma to the central nervous system” (Pharmacia Corporation, priority 2003, published 2005).

Settings: administered to subjects following stroke; Adibhatla et al. (2002) J. Neurochem. 80:12-23

C[N+](C)(C)CCOP(=O)(O)OP(=O)(O)OC[C@H]1O[C@@H](n2ccc(N)nc2=O)[C@H](O)[C@@H]1O [citicoline]
behavioral parameters: improvement in behavioral parameters
infarction volume: decrease in infarction volume
